Test results taken from patent US9776995B2, “Bicyclic sulfonamide compounds as sodium channel inhibitors” (AMGEN INC., priority 2013, dated 2017).
Where two headings read alike, the source gives them in different places. Blank lines part the entries; values can stand above or below the compound they belong to.

Tests used:
[1] = target: Nav 1.5 (Homo sapiens (Human), UniProt Q14524); experiment: in-vitro Nav 1.5 PX data; conditions: read-out: Nav 1.5 PX IC50
[2] = target: Nav 1.7 (Homo sapiens (Human), UniProt Q15858); experiment: in-vitro Nav 1.7 PX data; assay type: cell-based
Chain of Nav 1.7 (Q15858 whole entry): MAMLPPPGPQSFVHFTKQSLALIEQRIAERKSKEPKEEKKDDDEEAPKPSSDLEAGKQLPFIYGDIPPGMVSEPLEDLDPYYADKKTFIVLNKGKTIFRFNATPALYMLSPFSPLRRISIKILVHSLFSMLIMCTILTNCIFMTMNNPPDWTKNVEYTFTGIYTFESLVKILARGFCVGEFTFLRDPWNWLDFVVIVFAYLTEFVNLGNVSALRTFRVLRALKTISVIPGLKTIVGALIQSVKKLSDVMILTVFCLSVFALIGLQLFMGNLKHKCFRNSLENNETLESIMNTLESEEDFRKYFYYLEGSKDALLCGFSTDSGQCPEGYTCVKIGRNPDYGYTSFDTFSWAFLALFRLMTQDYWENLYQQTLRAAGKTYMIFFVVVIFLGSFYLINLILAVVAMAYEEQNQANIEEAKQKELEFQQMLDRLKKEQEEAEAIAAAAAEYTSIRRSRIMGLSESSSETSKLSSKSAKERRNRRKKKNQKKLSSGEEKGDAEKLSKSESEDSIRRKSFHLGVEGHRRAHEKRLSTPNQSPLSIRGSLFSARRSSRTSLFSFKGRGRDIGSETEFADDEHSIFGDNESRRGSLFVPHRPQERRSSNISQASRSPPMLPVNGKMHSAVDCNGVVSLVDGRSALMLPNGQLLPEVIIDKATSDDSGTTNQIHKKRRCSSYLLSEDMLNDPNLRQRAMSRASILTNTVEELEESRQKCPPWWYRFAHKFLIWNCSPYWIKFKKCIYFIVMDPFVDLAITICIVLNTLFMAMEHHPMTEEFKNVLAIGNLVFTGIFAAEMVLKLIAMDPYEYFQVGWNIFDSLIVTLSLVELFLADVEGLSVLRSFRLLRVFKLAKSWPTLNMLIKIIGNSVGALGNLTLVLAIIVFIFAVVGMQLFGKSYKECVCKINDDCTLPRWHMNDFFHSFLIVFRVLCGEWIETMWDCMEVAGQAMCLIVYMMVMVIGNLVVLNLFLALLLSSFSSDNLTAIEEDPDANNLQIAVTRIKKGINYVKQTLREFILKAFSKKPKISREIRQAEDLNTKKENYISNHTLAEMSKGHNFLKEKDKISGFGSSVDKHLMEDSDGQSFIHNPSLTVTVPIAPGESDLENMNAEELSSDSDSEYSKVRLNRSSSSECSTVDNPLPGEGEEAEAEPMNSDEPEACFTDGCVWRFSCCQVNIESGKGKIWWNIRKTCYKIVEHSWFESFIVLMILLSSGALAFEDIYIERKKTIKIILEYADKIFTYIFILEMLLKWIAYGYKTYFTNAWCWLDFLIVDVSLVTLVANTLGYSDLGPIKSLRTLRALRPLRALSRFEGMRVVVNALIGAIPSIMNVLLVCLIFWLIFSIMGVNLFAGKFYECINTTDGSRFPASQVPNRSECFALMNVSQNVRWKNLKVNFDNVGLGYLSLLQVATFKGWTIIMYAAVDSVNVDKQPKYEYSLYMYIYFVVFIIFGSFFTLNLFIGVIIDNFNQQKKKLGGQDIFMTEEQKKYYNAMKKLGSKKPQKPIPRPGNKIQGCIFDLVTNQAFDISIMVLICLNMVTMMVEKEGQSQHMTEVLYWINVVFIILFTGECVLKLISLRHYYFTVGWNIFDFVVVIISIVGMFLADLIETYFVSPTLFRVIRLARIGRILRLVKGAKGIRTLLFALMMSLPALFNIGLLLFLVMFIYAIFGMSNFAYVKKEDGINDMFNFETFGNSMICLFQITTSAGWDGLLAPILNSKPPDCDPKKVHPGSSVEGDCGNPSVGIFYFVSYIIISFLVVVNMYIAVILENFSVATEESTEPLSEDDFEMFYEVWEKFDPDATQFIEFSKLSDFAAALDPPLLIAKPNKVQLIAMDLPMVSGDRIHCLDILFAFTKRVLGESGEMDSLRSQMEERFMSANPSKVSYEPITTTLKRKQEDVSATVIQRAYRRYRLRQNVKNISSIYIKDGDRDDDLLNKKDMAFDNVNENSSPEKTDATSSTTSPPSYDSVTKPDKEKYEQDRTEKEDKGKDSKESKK

Chain of Nav 1.5 (Q14524 whole entry): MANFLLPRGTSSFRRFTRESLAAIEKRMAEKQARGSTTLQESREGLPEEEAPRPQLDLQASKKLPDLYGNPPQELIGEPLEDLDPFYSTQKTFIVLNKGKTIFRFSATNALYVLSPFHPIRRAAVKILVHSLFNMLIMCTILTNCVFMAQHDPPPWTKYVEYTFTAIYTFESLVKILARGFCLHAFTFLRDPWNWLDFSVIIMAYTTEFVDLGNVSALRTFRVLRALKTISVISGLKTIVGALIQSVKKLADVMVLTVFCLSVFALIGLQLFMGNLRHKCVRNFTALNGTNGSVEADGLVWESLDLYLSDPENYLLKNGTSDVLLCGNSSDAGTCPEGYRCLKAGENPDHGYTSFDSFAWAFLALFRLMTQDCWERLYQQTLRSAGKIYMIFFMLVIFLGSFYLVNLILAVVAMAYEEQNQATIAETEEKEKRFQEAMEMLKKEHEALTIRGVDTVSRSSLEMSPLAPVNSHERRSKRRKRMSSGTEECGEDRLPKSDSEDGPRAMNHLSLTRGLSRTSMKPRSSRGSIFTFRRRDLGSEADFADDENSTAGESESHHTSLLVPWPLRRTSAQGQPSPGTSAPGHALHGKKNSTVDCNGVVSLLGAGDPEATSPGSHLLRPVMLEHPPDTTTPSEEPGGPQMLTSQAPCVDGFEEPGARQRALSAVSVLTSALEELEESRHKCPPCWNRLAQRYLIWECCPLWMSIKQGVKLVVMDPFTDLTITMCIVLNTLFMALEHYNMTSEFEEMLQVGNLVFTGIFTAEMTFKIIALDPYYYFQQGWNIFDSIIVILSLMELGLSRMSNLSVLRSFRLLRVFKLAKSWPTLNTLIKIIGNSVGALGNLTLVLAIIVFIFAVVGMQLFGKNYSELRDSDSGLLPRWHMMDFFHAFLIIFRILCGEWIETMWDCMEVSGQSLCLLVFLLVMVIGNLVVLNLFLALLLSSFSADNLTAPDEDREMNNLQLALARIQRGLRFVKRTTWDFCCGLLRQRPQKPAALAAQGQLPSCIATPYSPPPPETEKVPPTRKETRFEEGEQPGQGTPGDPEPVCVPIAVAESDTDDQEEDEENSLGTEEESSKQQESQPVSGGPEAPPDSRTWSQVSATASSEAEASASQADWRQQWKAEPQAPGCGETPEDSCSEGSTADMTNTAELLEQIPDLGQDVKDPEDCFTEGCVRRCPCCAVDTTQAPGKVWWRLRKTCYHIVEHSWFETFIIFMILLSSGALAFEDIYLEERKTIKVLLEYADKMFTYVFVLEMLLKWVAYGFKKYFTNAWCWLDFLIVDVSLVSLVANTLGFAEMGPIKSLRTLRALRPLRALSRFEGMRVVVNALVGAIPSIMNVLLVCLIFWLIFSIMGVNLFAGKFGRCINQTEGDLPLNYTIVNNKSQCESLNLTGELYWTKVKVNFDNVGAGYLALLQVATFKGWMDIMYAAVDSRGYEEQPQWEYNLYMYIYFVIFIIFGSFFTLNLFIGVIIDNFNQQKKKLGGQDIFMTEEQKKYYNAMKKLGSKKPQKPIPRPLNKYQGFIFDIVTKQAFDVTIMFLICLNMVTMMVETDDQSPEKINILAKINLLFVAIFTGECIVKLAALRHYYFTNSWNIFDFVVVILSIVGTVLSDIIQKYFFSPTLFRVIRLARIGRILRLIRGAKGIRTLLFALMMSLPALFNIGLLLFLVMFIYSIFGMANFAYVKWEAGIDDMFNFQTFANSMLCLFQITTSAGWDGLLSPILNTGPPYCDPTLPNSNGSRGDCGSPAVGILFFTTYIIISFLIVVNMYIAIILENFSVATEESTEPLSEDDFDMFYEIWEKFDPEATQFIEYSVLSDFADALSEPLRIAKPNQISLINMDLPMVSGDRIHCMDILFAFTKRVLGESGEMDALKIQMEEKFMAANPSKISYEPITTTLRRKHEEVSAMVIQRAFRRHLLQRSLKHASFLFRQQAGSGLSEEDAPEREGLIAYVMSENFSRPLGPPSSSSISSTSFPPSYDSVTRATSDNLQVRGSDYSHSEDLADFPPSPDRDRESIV

Compound: COc1ccc(-c2ccc(C(F)(F)F)cc2)cc1-c1nccc2cc(S(=O)(=O)Nc3ccncn3)ccc12 [Example 147, 1-(4-methoxy-4′-(trifluoromethyl)-3-biphenylyl)-N-4-pyrimidinyl-6-isoquinolinesulfonamide]
IC50 ([1]; in-vitro Nav 1.5 PX data): > 10000 nM | IC50 ([2]; in-vitro Nav 1.7 PX data): 71.9 nM

Compound: COc1cc(-c2cc(F)cc(F)c2)ccc1-c1nccc2cc(S(=O)(=O)Nc3ccsn3)ccc12 [Example 5, 1-(3′,5′-DIFLUORO-3-METHOXY-[1,1′-BIPHENYL]-4-YL)-N-(ISOTHIAZOL-3-YL)ISOQUINOLINE-6-SULFONAMIDE 2,2,2-TRIFLUOROACETATE]
IC50 ([1]; in-vitro PX data): > 10000 nM | IC50 [2]: 337 nM

Compound: COc1nc(OCC2CCCCC2)ccc1-c1nccc2cc(S(=O)(=O)Nc3ccncn3)ccc12 [Example 66, 1-(6-(cyclohexylmethoxy)-2-methoxy-3-pyridinyl)-N-4-pyrimidinyl-6-isoquinolinesulfonamide]
IC50 ([1]; PatchXpress (PX), in vitro): > 10000 nM | IC50 ([2]; PatchXpress (PX), in vitro): 349 nM

Compound: COc1cc(-c2cccc(C(F)(F)F)c2)c(F)cc1-c1nn(C)c(=O)c2cc(S(=O)(=O)Nc3ccon3)ccc12 [Example 25, 1-(2-FLUORO-5-METHOXY-3′-(TRIFLUOROMETHYL)-[1,1′-BIPHENYL]-4-YL)-N-(ISOXAZOL-3-YL)-3-METHYL-4-OXO-3,4-DIHYDROPHTHALAZINE-6-SULFONAMIDE]
IC50 ([1]; in-vitro PX): > 10000 nM | IC50 [2]: 94.1 nM

Compound: COc1cc(-c2cccc(F)c2)c(Cl)cc1-c1ncc(C#N)c2cc(S(=O)(=O)Nc3ccon3)ccc12 [Example 27, 1-(2-CHLORO-3′-FLUORO-5-METHOXY-[1,1′-BIPHENYL]-4-YL)-4-CYANO-N-(ISOXAZOL-3-YL)ISOQUINOLINE-6-SULFONAMIDE]
IC50 ([1]; in-vitro PX): > 10000 nM | IC50 [2]: 282 nM

Compound: COc1cc(-c2cc(F)cc(F)c2)c(C#N)cc1-c1nccc2cc(S(=O)(=O)Nc3ncccn3)ccc12 [Example 107, 1-(2-cyano-3′,5′-difluoro-5-methoxy-4-biphenylyl)-N-2-pyrimidinyl-6-isoquinolinesulfonamide]
IC50 ([1]; in-vitro PX data): > 10000 nM | IC50 ([2]; in-vitro PX data): 255 nM

Compound: COc1cc(-c2cc(F)cc(F)c2)c(C#N)cc1-c1ncnc2cc(S(=O)(=O)Nc3nncs3)ccc12 [Example 216, 4-(2-cyano-3′,5′-difluoro-5-methoxy-4-biphenylyl)-N-1,3,4-thiadiazol-2-yl-7-quinazolinesulfonamide]
IC50 ([1]; in-vitro PX): > 10000 nM | IC50 ([2]; in-vitro PX): 45.6 nM

Compound: COc1nc(OCC2CCC(F)(F)CC2)ccc1-c1nccc2cc(S(=O)(=O)Nc3ccncn3)ccc12 [Example 69, 1-(6-((4,4-difluorocyclohexyl)methoxy)-2-methoxy-3-pyridinyl)-N-4-pyrimidinyl-6-isoquinolinesulfonamide]
IC50 ([1]; PatchXpress (PX), in vitro): > 30000 nM | IC50 ([2]; PatchXpress (PX), in vitro): 459 nM

Compound: COc1cc(-c2cccc(F)c2)c(Cl)cc1-c1ncnc2cc(S(=O)(=O)Nc3ncccn3)ccc12 [Example 243, 4-(2-chloro-3′-fluoro-5-methoxy-4-biphenylyl)-N-2-pyrimidinyl-7-quinazolinesulfonamide]
IC50 ([1]; in-vitro PX): > 10000 nM | IC50 ([2]; in-vitro PX): 80.3 nM

Compound: COc1cc(-c2cccc(C(F)(F)F)c2)c(C#N)cc1-c1nccc2cc(S(=O)(=O)Nc3ncon3)ccc12 [Example 118, 1-(2-cyano-5-methoxy-3′-(trifluoromethyl)-4-biphenylyl)-N-1,2,4-oxadiazol-3-yl-6-isoquinolinesulfonamide]
IC50 ([1]; in-vitro PX data): > 10000 nM | IC50 ([2]; in-vitro PX data): 21 nM

Compound: COc1cc(-c2ccc(C)c(Cl)c2)c(C#N)cc1-c1nccc2cc(S(=O)(=O)Nc3nncs3)ccc12 [Example 229, 1-(3′-chloro-2-cyano-5-methoxy-4′-methyl-4-biphenylyl)-N-1,3,4-thiadiazol-2-yl-6-isoquinolinesulfonamide]
IC50 ([1]; in-vitro PX): > 10000 nM | IC50 ([2]; in-vitro PX): 20.5 nM

Compound: COc1cc(-c2cc(F)cnc2OC)c(C#N)cc1-c1ncnc2cc(S(=O)(=O)Nc3nncs3)ccc12 [Example 20, 4-(5-CYANO-4-(5-FLUORO-2-METHOXYPYRIDIN-3-YL)-2-METHOXYPHENYL)-N-(1,3,4-THIADIAZOL-2-YL)QUINAZOLINE-7-SULFONAMIDE]
IC50 ([1]; in-vitro PX (PatchXpress) data): > 10000 nM | IC50 [2]: 182 nM

Compound: 1-(5-cyano-4-(5-fluoro-2-methoxy-3-pyridinyl)-2-methoxyphenyl)-N-1,3,4-thiadiazol-2-yl-6-isoquinolinesulfonamide [Example 223]
IC50 ([1]; in-vitro PX): > 10000 nM | IC50 ([2]; in-vitro PX): 72.3 nM

More lines, main results first:

IC50 ([2]; in-vitro Nav 1.7 PX data): 80.1 nM
Compound: COc1cc(-c2cc(F)cnc2OC)ccc1-c1nccc2cc(S(=O)(=O)Nc3nncs3)ccc12 [Example 30, 1-(4-(5-FLUORO-2-METHOXYPYRIDIN-3-YL)-2-METHOXYPHENYL)-N-(1,3,4-THIADIAZOL-2-YL)ISOQUINOLINE-6-SULFONAMIDE]
IC50 ([1]; in-vitro Nav 1.5 PX data): > 30000 nM

IC50 ([2]; in-vitro PX (PatchXpress) data): 36.3 nM
Compound: COc1cc(-c2cccc(C(F)(F)F)c2)c(C#N)cc1-c1nccc2cc(S(=O)(=O)Nc3ccncn3)ccc12 [Example 184, 1-(2-cyano-5-methoxy-3′-(trifluoromethyl)-4-biphenylyl)-N-4-pyrimidinyl-6-isoquinolinesulfonamide]
IC50 ([1]; in-vitro PX (PatchXpress) data): > 30000 nM

IC50 ([2]; in-vitro PX (PatchXpress) data): 204 nM
Compound: COc1cc(Oc2ccc(C)c(C)c2)ccc1-c1nccc2cc(S(=O)(=O)Nc3ccncn3)ccc12 [Example 176, 1-(4-(3,4-dimethylphenoxy)-2-methoxyphenyl)-N-4-pyrimidinyl-6-isoquinolinesulfonamide]
IC50 ([1]; in-vitro PX (PatchXpress) data): > 10000 nM

IC50 ([2]; in-vitro PX): 33.8 nM
Compound: COc1cc(-c2ccc(F)cc2)c(C#N)cc1-c1nccc2cc(S(=O)(=O)Nc3nncs3)ccc12 [Example 219, 1-(2-cyano-4′-fluoro-5-methoxy-4-biphenylyl)-N-1,3,4-thiadiazol-2-yl-6-isoquinolinesulfonamide]
IC50 ([1]; in-vitro PX): > 10000 nM

IC50 ([2]; in-vitro PX data): 141 nM
Compound: COc1cc(-c2cccc(F)c2)c(Cl)cc1-c1nccc2cc(S(=O)(=O)Nc3cccnn3)ccc12 [Example 120, 1-(2-chloro-3′-fluoro-5-methoxy-4-biphenylyl)-N-3-pyridazinyl-6-isoquinolinesulfonamide]
IC50 ([1]; in-vitro PX data): > 10000 nM

IC50 ([2]; in-vitro PX): 115 nM
Compound: COc1cc(-c2cccc(F)c2)c(Cl)cc1-c1ccnc2cc(S(=O)(=O)Nc3ccon3)ccc12 [Example 239, 4-(2-chloro-3′-fluoro-5-methoxy-4-biphenylyl)-N-3-isoxazolyl-7-quinolinesulfonamide]
IC50 ([1]; in-vitro PX): 11200 nM

IC50 ([2]; in-vitro PX (PatchXpress) data): 76 nM
Compound: COc1cc(-c2ccc(F)c(F)c2)c(C#N)cc1-c1nccc2cc(S(=O)(=O)Nc3ccncn3)ccc12 [Example 197, 1-(2-cyano-3′,4′-difluoro-5-methoxy-4-biphenylyl)-N-4-pyrimidinyl-6-isoquinolinesulfonamide]
IC50 ([1]; in-vitro PX (PatchXpress) data): > 10000 nM

IC50 ([2]; in-vitro PX (PatchXpress) data): 215 nM
Compound: COc1cc(-c2cc(C)cnc2OC)ccc1-c1nccc2cc(S(=O)(=O)Nc3nncs3)ccc12 [Example 188, 1-(2-methoxy-4-(2-methoxy-5-methyl-3-pyridinyl)phenyl)-N-1,3,4-thiadiazol-2-yl-6-isoquinolinesulfonamide]
IC50 ([1]; in-vitro PX (PatchXpress) data): > 30000 nM

IC50 ([2]; in-vitro PX (PatchXpress) data): 56 nM
Compound: COc1cc(-c2ccc(C(F)(F)F)cc2)c(C#N)cc1-c1nccc2cc(S(=O)(=O)Nc3ccncn3)ccc12 [Example 185, 1-(2-cyano-5-methoxy-4′-(trifluoromethyl)-4-biphenylyl)-N-4-pyrimidinyl-6-isoquinolinesulfonamide]
IC50 ([1]; in-vitro PX (PatchXpress) data): 20700 nM

IC50 ([2]; in-vitro PX data): 106 nM
Compound: COc1cc(-c2cc(F)cc(F)c2)ccc1-c1nccc2cc(S(=O)(=O)Nc3ncon3)ccc12 [Example 127, 1-(3′,5′-difluoro-3-methoxy-4-biphenylyl)-N-1,2,4-oxadiazol-3-yl-6-isoquinolinesulfonamide]
IC50 ([1]; in-vitro PX data): > 10000 nM

IC50 ([2]; in-vitro PX data): 62.5 nM
Compound: COc1cc(-c2ccc(F)cc2)c(C#N)cc1-c1nccc2cc(S(=O)(=O)Nc3ccon3)ccc12 [Example 106, 1-(2-cyano-4′-fluoro-5-methoxy-4-biphenylyl)-N-3-isoxazolyl-6-isoquinolinesulfonamide]
IC50 ([1]; in-vitro PX data): > 10000 nM

IC50 ([2]; in-vitro PX (PatchXpress) data): 169 nM
Compound: COc1cc(-c2cc(F)cnc2OC)ccc1-c1nccc2cc(S(=O)(=O)Nc3ccon3)ccc12 [Example 31, 1-(4-(5-FLUORO-2-METHOXYPYRIDIN-3-YL)-2-METHOXYPHENYL)-N-(ISOXAZOL-3-YL)ISOQUINOLINE-6-SULFONAMIDE]
IC50 ([1]; in-vitro PX (PatchXpress) data): > 10000 nM

IC50 ([2]; in-vitro PX (PatchXpress) data): 99.4 nM
Compound: COc1cc(Oc2cc(F)ccc2F)ccc1-c1nccc2cc(S(=O)(=O)Nc3nncs3)ccc12 [Example 187, 1-(4-(2,5-difluorophenoxy)-2-methoxyphenyl)-N-1,3,4-thiadiazol-2-yl-6-isoquinolinesulfonamide]
IC50 ([1]; in-vitro PX (PatchXpress) data): > 10000 nM

IC50 ([2]; in-vitro PX data): 1040 nM
Compound: COc1cc(-c2cc(F)cc(F)c2)ccc1-c1nccc2cc(S(=O)(=O)Nc3nc(C)ns3)ccc12 [Example 130, 1-(3′,5′-difluoro-3-methoxy-4-biphenylyl)-N-(3-methyl-1,2,4-thiadiazol-5-yl)-6-isoquinolinesulfonamide]
IC50 ([1]; in-vitro PX data): > 30000 nM

IC50 ([2]; in-vitro Nav 1.7 PX data): 54.7 nM
Compound: COc1cc(-c2cccc(C(F)(F)F)c2)c(C#N)cc1-c1nccc2cc(S(=O)(=O)Nc3ccon3)ccc12 [Example 1, 1-(2-CYANO-5-METHOXY-3′-(TRIFLUOROMETHYL)-[1,1′-BIPHENYL]-4-YL)-N-(ISOXAZOL-3-YL)ISOQUINOLINE-6-SULFONAMIDE]
IC50 ([1]; in-vitro Nav 1.5 PX data): > 10000 nM

IC50 ([2]; in-vitro PX): 16.9 nM
Compound: COc1cc(-c2cccc(C(F)(F)F)c2)c(C#N)cc1-c1ncnc2cc(S(=O)(=O)Nc3ccon3)ccc12 [Example 211, 4-(2-cyano-5-methoxy-3′-(trifluoromethyl)-4-biphenylyl)-N-3-isoxazolyl-7-quinazolinesulfonamide]
IC50 ([1]; in-vitro PX): > 10000 nM

IC50 ([2]; in-vitro Nav 1.7 PX data): 45.5 nM
Compound: COc1cc(-c2ccc(F)c(C)c2)c(C#N)cc1-c1nccc2cc(S(=O)(=O)Nc3ccncn3)ccc12 [Example 155, 1-(2-cyano-4′-fluoro-5-methoxy-3′-methyl-4-biphenylyl)-N-4-pyrimidinyl-6-isoquinolinesulfonamide]
IC50 ([1]; in-vitro Nav 1.5 PX data): 23400 nM

IC50 ([2]; PatchXpress (PX), in vitro): 58.5 nM
Compound: COc1cc(-c2ccc(Cl)c(F)c2)c(C#N)cc1-c1nccc2cc(S(=O)(=O)Nc3ccon3)ccc12 [Example 76, 1-(4′-chloro-2-cyano-3′-fluoro-5-methoxy-4-biphenylyl)-N-3-isoxazolyl-6-isoquinolinesulfonamide]
IC50 ([1]; PatchXpress (PX), in vitro): > 10000 nM
